{
  "source": "PubChem BioAssay AID2060512",
  "about": "(Molecular Pharmacology Branch, DTP, NCI, 2025)",
  "system": "186277-243-T-J2-PDC complex spheroid viability",
  "assay": "Anticancer human tumor 186277-243-T-J2-PDC patient-derived colon adenocarcinoma cell line growth inhibition [GQUAD]",
  "conditions": "for IC50: curve of first compound; for viability, T/C: stronger effect = lower value",
  "source_text": "DNA G-quadruplex Stabilizer Agents in Combinations in Complex Spheroids\nA high-throughput screen of multi-cell type tumor spheroids was designed to identify active combinations of DNA G-quadruplex stabilizer agents and targeted small molecules. Complex spheroids include a stromal component modeled by human endothelial cells (HUVEC) and fibroblasts modeled by human mesenchymal stem cells (MSCs). The concentration ranges selected for each drug and investigational agent were based upon clinically achievable concentrations if the clinical Cmax of the agent was known.\nCompounds. The drugs and investigational agents: pidnarulex (CX-5461; NSC782164), APTO-253 (NSC789042), BRACO-19 (NSC847499), peposertib (NSC802822), ceralasertib (NSC780249), elimusertib (NSC800525), camonsertib (NSC841442), AZD-1390 (NSC803789), olaparib (NSC753686), talazoparib (NSC767125), ART-558 (NSC835418), sotorasib (NSC818433), MRTX-1133 (NSC836407), SN-38 (NSC673596), topotecan (NSC609699), etoposide (NSC141540), doxorubicin (NSC123127), gemcitabine (NSC613327), 5-fluorouracil (NSC19893), paclitaxel (NSC125973), vemurafenib (NSC761431), panobinostat (NSC761190), R-306465 (JNJ-16241199; NSC773264), adavosertib (NSC754352), TP-3654 (NSC805149), carboplatin (NSC241240), KSQ-4279 (NSC840948), and staurosporine (NSC755774) were obtained from the National Cancer Institute (NCI) Developmental Therapeutics Program Chemical Repository (34). The FDA-approved anticancer drug set is available from the NCI Developmental Therapeutics Program. […] The stock solutions were prepared in dimethyl sulfoxide (DMSO, Sigma-Aldrich, St. Louis, MO, cat. D2650) at 800-fold the tested concentration and stored at -70 degrees C prior to their use. All drugs and investigational agents were tested over a range starting from a high concentration at or near the clinical Cmax and decreasing in half-log increments. If the clinical Cmax for an agent had not been determined, the highest concentration tested was 10 microM.\n2.3 Cell Culture. All cells were maintained in an incubator at 37 degrees C and 5% CO2 with 95% humidity. The PDC lines were cultured according to standard operating procedures established by the NCI PDMR. All PDCs were thawed and cultured in Matrigel-coated flasks prepared with a working solution of 1X Ham's F-12 nutrient mix, without supplementation (Invitrogen, cat. 11765054), 100 U/mL penicillin-streptomycin (Invitrogen, cat. 15140122), and 2.5% Matrigel (Corning Inc., cat. 354248) for the first three passages. The 857933-349-R-J2-PDC line was cultured in 6C/Colon 1B media, which includes advanced DMEM/F-12 (Thermo Fisher Scientific, cat. 12634028), 10 mM HEPES (Thermo Fisher Scientific, cat. 15630080), 1X GlutaMAX supplement (Thermo Fisher Scientific, cat. 35050061), 0.1 mg/mL primocin (InvivoGen, cat. ant-pm-2), 10% defined fetal bovine serum, heat inactivated (HyClone Laboratories Inc., cat. SH30070.03HI), 50% L-WRN conditioned media (ATCC, cat. CRL-3276), 1.25 mM N-Acetyl-L-cysteine (Sigma-Aldrich, cat. A9165), 10 mM nicotinamide (Sigma-Aldrich, cat. N0636), 1X B-27 supplement (Thermo Fisher Scientific, cat. 17504044), 1X N-2 supplement (Thermo Fisher Scientific, cat. 17502048), 10 microM Y-27632 dihydrochloride (Tocris Bioscience, cat. 1254), and 50 ng/mL human EGF recombinant protein (Thermo Fisher Scientific, cat. PHG0311). The 485176-168-R4-J1-PDC line was cultured in Panc media, which includes all 6C/Colon 1B media components plus 100 ng/mL human FGF-10 (Thermo Fisher Scientific, cat. 100-26), 500 nM SB-431542 (Selleckchem, cat. S1067), and gastrin (Tocris, cat. 3006).\n[…]",
  "data": [
    {"compound": "CC(C)(O)C1CCC(Nc2ccc3ncc(-c4cccc(C(F)(F)F)c4)n3n2)CC1", "note": "(configuration not stated) + CN(C)c1ccc(Nc2c3ccc(NC(=O)CCN4CCCC4)cc3nc3cc(NC(=O)CCN4CCCC4)ccc23)cc1;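 note: spheroids exposed to drugs for 7 days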;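 for viability, T/C: 100% = DMSO vehicle control viability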", "values": [
      {"measurement": "IC50", "setting": "second compound 0.0316 µM", "result": 2.7, "unit": "µM"},
      {"measurement": "IC50", "setting": "second compound 0.1 µM", "result": 4.05, "unit": "µM"},
      {"measurement": "IC50", "setting": "second compound 0.316 µM", "result": 2.78, "unit": "µM"},
      {"measurement": "IC50", "setting": "second compound 1 µM", "result": 5.19, "unit": "µM"},
      {"measurement": "IC50", "setting": "second compound 3.16 µM", "result": 2.89, "unit": "µM"},
      {"measurement": "IC50", "setting": "second compound 10 µM", "result": 3.53, "unit": "µM"},
      {"measurement": "viability, T/C", "setting": "second compound 0.0316 µM, first compound 0.0316 µM", "result": 103, "unit": "%"},
      {"measurement": "viability, T/C", "setting": "second compound 0.0316 µM, first compound 0.1 µM", "result": 84.8, "unit": "%"},
      {"measurement": "viability, T/C", "setting": "second compound 0.0316 µM, first compound 0.316 µM", "result": 113, "unit": "%"},
      {"measurement": "viability, T/C", "setting": "second compound 0.0316 µM, first compound 1 µM", "result": 92.4, "unit": "%"},
      {"measurement": "viability, T/C", "setting": "second compound 0.0316 µM, first compound 3.16 µM", "result": 42.7, "unit": "%"},
      {"measurement": "viability, T/C", "setting": "second compound 0.0316 µM, first compound 10 µM", "result": 44, "unit": "%"},
      {"measurement": "viability, T/C", "setting": "second compound 0.1 µM, first compound 0.0316 µM", "result": 98.8, "unit": "%"},
      {"measurement": "viability, T/C", "setting": "second compound 0.1 µM, first compound 0.1 µM", "result": 89.1, "unit": "%"},
      {"measurement": "viability, T/C", "setting": "second compound 0.1 µM, first compound 0.316 µM", "result": 91.4, "unit": "%"},
      {"measurement": "viability, T/C", "setting": "second compound 0.1 µM, first compound 1 µM", "result": 92.1, "unit": "%"},
      {"measurement": "viability, T/C", "setting": "second compound 0.1 µM, first compound 3.16 µM", "result": 51.6, "unit": "%"},
      {"measurement": "viability, T/C", "setting": "second compound 0.1 µM, first compound 10 µM", "result": 44.1, "unit": "%"},
      {"measurement": "viability, T/C", "setting": "second compound 0.316 µM, first compound 0.0316 µM", "result": 107, "unit": "%"},
      {"measurement": "viability, T/C", "setting": "second compound 0.316 µM, first compound 0.1 µM", "result": 92.7, "unit": "%"},
      {"measurement": "viability, T/C", "setting": "second compound 0.316 µM, first compound 0.316 µM", "result": 108, "unit": "%"},
      {"measurement": "viability, T/C", "setting": "second compound 0.316 µM, first compound 1 µM", "result": 92.3, "unit": "%"},
      {"measurement": "viability, T/C", "setting": "second compound 0.316 µM, first compound 3.16 µM", "result": 44.9, "unit": "%"},
      {"measurement": "viability, T/C", "setting": "second compound 0.316 µM, first compound 10 µM", "result": 36, "unit": "%"},
      {"measurement": "viability, T/C", "setting": "second compound 1 µM, first compound 0.0316 µM", "result": 93.1, "unit": "%"},
      {"measurement": "viability, T/C", "setting": "second compound 1 µM, first compound 0.1 µM", "result": 99.5, "unit": "%"},
      {"measurement": "viability, T/C", "setting": "second compound 1 µM, first compound 0.316 µM", "result": 85.7, "unit": "%"},
      {"measurement": "viability, T/C", "setting": "second compound 1 µM, first compound 1 µM", "result": 92, "unit": "%"},
      {"measurement": "viability, T/C", "setting": "second compound 1 µM, first compound 3.16 µM", "result": 56.2, "unit": "%"},
      {"measurement": "viability, T/C", "setting": "second compound 1 µM, first compound 10 µM", "result": 41.7, "unit": "%"},
      {"measurement": "viability, T/C", "setting": "second compound 3.16 µM, first compound 0.0316 µM", "result": 93.1, "unit": "%"},
      {"measurement": "viability, T/C", "setting": "second compound 3.16 µM, first compound 0.1 µM", "result": 93.5, "unit": "%"},
      {"measurement": "viability, T/C", "setting": "second compound 3.16 µM, first compound 0.316 µM", "result": 108, "unit": "%"},
      {"measurement": "viability, T/C", "setting": "second compound 3.16 µM, first compound 1 µM", "result": 81.6, "unit": "%"},
      {"measurement": "viability, T/C", "setting": "second compound 3.16 µM, first compound 3.16 µM", "result": 48.2, "unit": "%"},
      {"measurement": "viability, T/C", "setting": "second compound 3.16 µM, first compound 10 µM", "result": 27.6, "unit": "%"},
      {"measurement": "viability, T/C", "setting": "second compound 10 µM, first compound 0.0316 µM", "result": 133, "unit": "%"},
      {"measurement": "viability, T/C", "setting": "second compound 10 µM, first compound 0.1 µM", "result": 107, "unit": "%"},
      {"measurement": "viability, T/C", "setting": "second compound 10 µM, first compound 0.316 µM", "result": 96.7, "unit": "%"},
      {"measurement": "viability, T/C", "setting": "second compound 10 µM, first compound 1 µM", "result": 98.2, "unit": "%"},
      {"measurement": "viability, T/C", "setting": "second compound 10 µM, first compound 3.16 µM", "result": 41.4, "unit": "%"},
      {"measurement": "viability, T/C", "setting": "second compound 10 µM, first compound 10 µM", "result": 22.8, "unit": "%"}
    ]}
  ]
}
